In PMC9960759, “Discovery of New Boswellic Acid Hybrid 1H-1,2,3-Triazoles for Diabetic Management: In Vitro and In Silico Studies” (Pharmaceuticals, 2023) one finds IC50, Ki and type of inhibition data, which are given here for 24 compounds.

The target of experiment [1] is α-glucosidase (EC 3.2.1.20).
Description: The α-glucosidase (EC 3.2.1.20; Saccharomyces cerevisiae) assay was carried out using 50 mM of phosphate buffer (pH = 6.8). The test samples were dissolved in DMSO. The enzyme (1U/2mL) dissolved in phosphate buffer: 20 µL/well of enzyme, 20 µL/well of test samples, and 135 µL/well of phosphate buffer were employed in the 96-well plate. After adding all of these into the 96-well plate, followed by 15 min incubation at 37 °C, 25 µL/well of substrate para-nitro phenyl-α-D-glucopyranoside (0.7 mM) was added to the 96-well plate, and measurements were taken at 400 nm for 30 min using a spectrophotometer (xMarkTM Microplate, Bio-Rad, Hercules, CA, USA). As a control, 7% DMSO was employed. […] For mechanistic studies, a similar procedure was employed, with the addition of four different substrate concentrations: 0.1, 0.2, 0.4, and 0.8 µM. The percentage of inhibition was estimated using the following formula: % Inhibition=100×O.D. of test compound/O.D. of control−100
The target of experiment [2] is α-glucosidase. The experiment in a line: Kinetic (mechanistic) studies of α-glucosidase inhibition. The conditions noted are these: for Ki: four substrate concentrations, Lineweaver–Burk / Dixon plots; for type of inhibition: kinetic studies. The class given is biochemical, Saccharomyces cerevisiae. The method, then: In this type of inhibition, the inhibitor binds with the active site residue of enzyme and, therefore, Vmax remains the same, with an increase in the Km. […] In this type of inhibition, both inhibitors—Vmax and Km—are affected by Vmax decreases and Km increases. […] The test samples were dissolved in DMSO. […] (B) Secondary replot of Lineweaver–Burk plot between the slopes of each Lineweaver–Burk plot vs. different concentrations of compound 6f. (C) Dixon plot of reciprocal of rate of reaction (velocities) vs. different concentrations of compound 6f. […] (B) Secondary replot of Lineweaver–Burk plot between the slopes of each Lineweaver–Burk plot vs. different concentrations of compound 7h. (C) Dixon plot of reciprocal of rate of reaction (velocities) vs. different concentrations of compound 7h.

[3] abbreviates: read-out: IC50, α-glucosidase-inhibitory activity.
[4] abbreviates: read-out: IC50 ± µM, in vitro α-glucosidase-inhibitory activity, Table 2, substrate p-nitrophenyl-α-D-glucopyranoside 0.7 mM, pH 6.8, 37 °C.

Read-outs that look alike come from different tables or passages of the source.

On to `CC(=O)OC1CCC2(C)C(CCC3(C)C2C(=O)C=C2C4C(C)C(C)CCC4(C)CCC23C)C1(C)C(=O)OCn1cc(-c2ccccc2)nn1` (stereo not drawn) [6a, (4-Phenyl-1H-1,2,3-triazol-1-yl) Methyl 3α-acetyloxy-11-oxo-urs-12-en-24-oate], for which the IC50 in experiment [1] (setting [3]) was found to be 2.02 ± 0.031 µM; in experiment [1] (setting [4]), 2.02 ± 0.03 µM.

For the compound `CC(=O)O[C@@H]1CC[C@@]2(C)[C@@H](CC[C@]3(C)[C@@H]2C(=O)C=C2[C@@H]4[C@@H](C)[C@H](C)CC[C@]4(C)CC[C@]23C)[C@@]1(C)C(=O)OCn1cc(-c2ccccc2C)nn1` [6b, (4-(O-tolyl)-1H-1,2,3-triazol-1-yl) Methyl 3α-acetyloxy-11-oxo-urs-12-en-24-oate], the IC50 in experiment [1] (setting [3]) and in experiment [1] (setting [4]) was 2.25 ± 0.1 µM each time.

With `COc1ccccc1-c1cn(COC(=O)C2(C)C(OC(C)=O)CCC3(C)C2CCC2(C)C3C(=O)C=C3C4C(C)C(C)CCC4(C)CCC32C)nn1` (stereo not drawn) [6c, (4-(Ortho-methoxyphenyl)-1H-1,2,3-triazol-1-yl) Methyl 3α-acetyloxy-11-oxo-urs-12-en-24-oate], the results for the IC50 in experiment [1] (setting [3]) and in experiment [1] (setting [4]) were 1.23 µM and 1.23 ± 0.08 µM, respectively.

As to `CC(=O)O[C@@H]1CC[C@@]2(C)[C@@H](CC[C@]3(C)[C@@H]2C(=O)C=C2[C@@H]4[C@@H](C)[C@H](C)CC[C@]4(C)CC[C@]23C)[C@@]1(C)C(=O)OCn1cc(-c2ccccc2C(F)(F)F)nn1` [6d], the IC50 in experiment [1] (setting [3]) amounted to 2.37 µM; in experiment [1] (setting [4]), 2.37 ± 0.11 µM.

On to `COc1ccc(-c2cn(COC(=O)C3(C)C(OC(C)=O)CCC4(C)C3CCC3(C)C4C(=O)C=C4C5C(C)C(C)CCC5(C)CCC43C)nn2)cc1` (stereo not drawn) [6e, (4-(Para-methoxyphenyl)-1H-1,2,3-triazol-1-yl) Methyl 3α-acetyloxy-11-oxo-urs-12-en-24-oate], for which the IC50 was 2.01 µM in experiment [1] (setting [3]) and 2.01 ± 0.09 µM in experiment [1] (setting [4]).

Turning to `CC(=O)OC1CCC2(C)C(CCC3(C)C2C(=O)C=C2C4C(C)C(C)CCC4(C)CCC23C)C1(C)C(=O)OCn1cc(-c2cccc(C(F)(F)F)c2)nn1` (stereo not shown) [6f], in experiment [2], the Ki worked out at 840 ± 7 nM and the type of inhibition entry is on record as “competitive”. The IC50 in experiment [1] (setting [3]) was determined as 0.22 µM. The IC50 in experiment [1] (setting [4]) was 0.22 ± 0.08 µM.

As to `CC(=O)O[C@@H]1CC[C@@]2(C)[C@@H](CC[C@]3(C)[C@@H]2C(=O)C=C2[C@@H]4[C@@H](C)[C@H](C)CC[C@]4(C)CC[C@]23C)[C@@]1(C)C(=O)OCn1cc(-c2cccc(Br)c2)nn1` [6g], affinity in experiment [2] was put at a Ki of 840 ± 7 nM. The type of inhibition result in experiment [2] is listed as “competitive”. The IC50 in experiment [1] (setting [3]) came to 0.78 µM; in experiment [1] (setting [4]), 0.78 ± 0.01 µM.

As for `CC(=O)OC1CCC2(C)C(CCC3(C)C2C(=O)C=C2C4C(C)C(C)CCC4(C)CCC23C)C1(C)C(=O)OCn1cc(-c2ccc(Br)cc2)nn1` (stereo not shown) [6h], the 50% inhibitory concentration (IC50) is 0.69 µM in experiment [1] (setting [3]) and 0.69 ± 0.04 µM in experiment [1] (setting [4]).

Take `CC(=O)O[C@@H]1CC[C@@]2(C)[C@@H](CC[C@]3(C)[C@@H]2C(=O)C=C2[C@@H]4[C@@H](C)[C@H](C)CC[C@]4(C)CC[C@]23C)[C@@]1(C)C(=O)OCn1cc(-c2ccc(Cl)cc2)nn1` [6i]: the IC50 in experiment [1] (setting [3]) was 3.06 µM; in experiment [1] (setting [4]), 3.06 ± 0.22 µM.

As to `CC(=O)O[C@@H]1CC[C@@]2(C)[C@@H](CC[C@]3(C)[C@@H]2C(=O)C=C2[C@@H]4[C@@H](C)[C@H](C)CC[C@]4(C)CC[C@]23C)[C@@]1(C)C(=O)OCn1cc(-c2ccc(F)cc2)nn1` [6j], the IC50 in experiment [1] (setting [3]) worked out at 0.58 µM; in experiment [1] (setting [4]), 0.58 ± 0.04 µM.

Consider `CC(=O)O[C@@H]1CC[C@@]2(C)[C@@H](CC[C@]3(C)[C@@H]2C(=O)C=C2[C@@H]4[C@@H](C)[C@H](C)CC[C@]4(C)CC[C@]23C)[C@@]1(C)C(=O)OCn1cc(-c2ccc(C(F)(F)F)cc2)nn1` [6k], for which the IC50 in experiment [1] (setting [3]) turned out to be 1.26 µM; in experiment [1] (setting [4]), 1.26 ± 0.05 µM.

In the case of `CC1CCC2(C)CCC3(C)C(=CC(=O)C4C5(C)CCC(O)C(C)(C(=O)OCn6cc(-c7ccccc7)nn6)C5CCC43C)C2C1C` (stereo not drawn) [7a, (4-Phenyl-1H-1,2,3-triazol-1-yl) Methyl 3α-hydroxy-11-oxo-urs-12-en-24-oate], the IC50 was determined as 2.31 µM in experiment [1] (setting [3]) and 2.31 ± 0.17 µM in experiment [1] (setting [4]).

Turning to `Cc1ccccc1-c1cn(COC(=O)C2(C)C(O)CCC3(C)C2CCC2(C)C3C(=O)C=C3C4C(C)C(C)CCC4(C)CCC32C)nn1` (stereo not drawn) [7b, (4-(Ortho-tolyl)-1H-1,2,3-triazol-1-yl) Methyl 3α-hydroxy-11-oxo-urs-12-en-24-oate], the IC50 is 2.11 µM in experiment [1] (setting [3]) and 2.11 ± 0.1 µM in experiment [1] (setting [4]).

In the case of `COc1ccccc1-c1cn(COC(=O)[C@@]2(C)[C@H](O)CC[C@@]3(C)[C@H]2CC[C@]2(C)[C@@H]3C(=O)C=C3[C@@H]4[C@@H](C)[C@H](C)CC[C@]4(C)CC[C@]32C)nn1` [7c, (4-(Ortho-methoxyphenyl)-1H-1,2,3-triazol-1-yl) Methyl 3α-hydroxy-11-oxo-urs-12-en-24-oate], the IC50 amounted to 2.18 µM in experiment [1] (setting [3]) and 2.18 ± 0.01 µM in experiment [1] (setting [4]).

Turning to `CC(=O)O[C@@H]1CC[C@@]2(C)[C@@H](CC[C@]3(C)[C@@H]2C(=O)C=C2[C@@H]4[C@@H](C)[C@H](C)CC[C@]4(C)CC[C@]23C)[C@@]1(C)C(=O)OCn1cc(-c2ccccc2C(F)(F)F)nn1` [7d], the IC50 in experiment [1] (setting [3]) amounted to 2.62 µM; in experiment [1] (setting [4]), 2.62 ± 0.06 µM.

Consider `COc1ccc(-c2cn(COC(=O)C3(C)C(O)CCC4(C)C3CCC3(C)C4C(=O)C=C4C5C(C)C(C)CCC5(C)CCC43C)nn2)cc1` (stereo not drawn) [7e, (4-(Para-methoxyphenyl)-1H-1,2,3-triazol-1-yl) Methyl 3α-hydroxy-11-oxo-urs-12-en-24-oate], for which the figures for the IC50 in experiment [1] (setting [3]) and in experiment [1] (setting [4]) were 2.37 µM and 2.37 ± 0.07 µM, respectively.

Regarding `CC1CCC2(C)CCC3(C)C(=CC(=O)C4C5(C)CCC(O)C(C)(C(=O)OCn6cc(-c7cccc(C(F)(F)F)c7)nn6)C5CCC43C)C2C1C` (stereo not shown) [7f], the values for the IC50 in experiment [1] (setting [3]) and in experiment [1] (setting [4]) were 2.52 µM and 2.52 ± 0.12 µM, respectively.

On to `C[C@H]1[C@H](C)CC[C@]2(C)CC[C@]3(C)C(=CC(=O)[C@@H]4[C@@]5(C)CC[C@@H](O)[C@](C)(C(=O)OCn6cc(-c7cccc(Br)c7)nn6)[C@@H]5CC[C@]43C)[C@H]12` [7g], for which the IC50 in experiment [1] (setting [3]) turned out to be 1.34 µM; in experiment [1] (setting [4]) it was 1.34 ± 0.02 µM.

With `C[C@H]1[C@H](C)CC[C@]2(C)CC[C@]3(C)C(=CC(=O)[C@@H]4[C@@]5(C)CC[C@@H](O)[C@](C)(C(=O)OCn6cc(-c7ccc(Br)cc7)nn6)[C@@H]5CC[C@]43C)[C@H]12` [7h], in experiment [2], the Ki is 1180 ± 1.2 nM and the type of inhibition entry is reported as “mixed”. In experiment [1] (setting [3]), the IC50 amounted to 0.43 µM. For the same compound, the half-maximal inhibitory concentration (IC50) in experiment [1] (setting [4]) came out at 0.43 ± 0.05 µM.

Take `CC(=O)O[C@@H]1CC[C@@]2(C)[C@@H](CC[C@]3(C)[C@@H]2C(=O)C=C2[C@@H]4[C@@H](C)[C@H](C)CC[C@]4(C)CC[C@]23C)[C@@]1(C)C(=O)OCn1cc(-c2ccc(Cl)cc2)nn1` [7i]: the values for the IC50 in experiment [1] (setting [3]) and in experiment [1] (setting [4]) were 3.18 µM and 3.18 ± 0.69 µM, respectively.

Consider `CC(=O)O[C@@H]1CC[C@@]2(C)[C@@H](CC[C@]3(C)[C@@H]2C(=O)C=C2[C@@H]4[C@@H](C)[C@H](C)CC[C@]4(C)CC[C@]23C)[C@@]1(C)C(=O)OCn1cc(-c2ccc(F)cc2)nn1` [7j], for which the IC50 was determined as 2.64 µM in experiment [1] (setting [3]) and 2.64 ± 0.03 µM in experiment [1] (setting [4]).

For `CC(=O)O[C@@H]1CC[C@@]2(C)[C@@H](CC[C@]3(C)[C@@H]2C(=O)C=C2[C@@H]4[C@@H](C)[C@H](C)CC[C@]4(C)CC[C@]23C)[C@@]1(C)C(=O)OCn1cc(-c2ccc(C(F)(F)F)cc2)nn1` [7k], the results for the IC50 in experiment [1] (setting [3]) and in experiment [1] (setting [4]) were 1.39 µM and 1.39 ± 0.11 µM, respectively.

In the case of `C#CCOC(=O)[C@]1(C)C2CC[C@]3(C)C(C(=O)C=C4[C@@H]5[C@@H](C)[C@H](C)CC[C@]5(C)CC[C@]43C)[C@@]2(C)CC[C@H]1OC(C)=O` (stereo partly drawn) [compound 3, (Prop-2-yne-1-yl) 3α-acetyloxy-11-oxo-urs-12-en-24-oate], in experiment [1] (setting [3]), the IC50 came out at 4.72 ± 0.52 µM.

Take `C#CCOC(=O)C1(C)C(O)CCC2(C)C1CCC1(C)C2C(=O)C=C2C3C(C)C(C)CCC3(C)CCC21C` (stereo not drawn) [compound 4, (Prop-2-yne-1-yl) 3α-hydroxy-11-oxo-urs-12-en-24-oate]: in experiment [1] (setting [3]), the 50% inhibitory concentration (IC50) was found to be 5.32 ± 0.15 µM.
